Reference: patent US20210315831A1, “PREPARATION OF NANOSUSPENSION COMPRISING NANOCRYSTALS OF ACTIVE PHARMACEUTICAL INGREDIENTS WITH LITTLE OR NO STABILIZING AGENTS” (CENTRE NATIONAL DE LA RECHERCHE SCIENTIFIQUE, priority 2018, published 2021)
Where two headings read alike, the source gives them in different places.

Legend:
[1] = Plasma pharmacokinetic in mice after intravenous injection; conditions: i.v. 10 mg/kg ETO
white blood cells (WBC) = experiment: Hematological toxicity, white blood cell count in mice; format: in vivo, BALB/c female mice
Procedure: The drug schedule protocol was equivalent to the anticancer efficacy study. Blood samples were taken in the mice tail vein at 1, 12, 15, 17 and 22 days and transferred to Eppendorf tube containing 2 μL of EDTA for white blood cells (WBC) numbering using a MS9-5 (MS Pharmaceuticals, France).

CT26 colon cancer cells = experiment: In vitro cytotoxicity, MTT test, CT26 cells; conditions: Mus musculus
[2] = test system: Murine carcinoma tumors CT26; experiment: Anticancer efficacy on subcutaneous CT26 tumors in mice; conditions: 10 mg/kg ETO d8, d9 and d11, d12
[3] = test system: LLC1 Lewis lung cancer cells; experiment: cells; conditions: Mus musculus
in vivo = conditions: female, BALB/c, mouse, plasma, iv, 10 mg/kg

SMILES: COc1cc([C@@H]2c3cc4c(cc3[C@@H](O[C@@H]3O[C@@H]5CO[C@@H](C)O[C@H]5[C@H](O)[C@H]3O)[C@H]3COC(=O)[C@H]23)OCO4)cc(OC)c1O [Free Etoposide, etoposide]
- Maximum amount in total mice plasma (μg/mL) ± SD (n = 6) [1]: 37.62 ± 0.85 µg/mL
- White blood cell count (10^9 cells/L), Days 1 (white blood cells (WBC); day 1, taken as control before treatment): 8.9 ± 2.3 10^9 cells/L
- White blood cell count (10^9 cells/L), Days 12 (white blood cells (WBC); day 12, last day of treatment, i.v. 10 mg/kg): 6.5 ± 4.4 10^9 cells/L
- White blood cell count (10^9 cells/L), Days 15 (white blood cells (WBC); day 15, i.v. 10 mg/kg): 11.6 ± 0.9 10^9 cells/L
- White blood cell count (10^9 cells/L), Days 17 (white blood cells (WBC); day 17, i.v. 10 mg/kg): 10.4 ± 1.3 10^9 cells/L
- White blood cell count (10^9 cells/L), Days 22 (white blood cells (WBC); day 22, i.v. 10 mg/kg): 11.3 ± 3.4 10^9 cells/L
- IC50 (CT26 colon cancer cells; CT26, 48 h, read-out: CT26-IC50 (48 h) (μM)): 11.3 ± 1.4 µM
- IC50 (CT26 colon cancer cells; CT26, 48 h, read-out: IC 50 (48 h) (μg/mL)): 8.99 µg/mL
- IC50 (CT26 colon cancer cells; CT26, 72 h, read-out: CT26-IC50 (72 h) (μM)): 5.6 ± 0.1 µM
- IC50 (CT26 colon cancer cells; CT26, 72 h, read-out: IC 50 (72 h) (μg/mL)): 5.17 µg/mL
- Time for median tumor to reach 50 mm^3 [2]: 9.5
- mice weight loss throughout the investigation [2]: a decrease is observed
- Mean body weight change, d17 ([2]; second value of the cell, d17): +3.85 d17
- Mean body weight change (day of nadir) ([2]; value at nadir): −3.40
- Median Tumor Volume (mm^3 on day 12) ([2]; day 12): 69 mm^3
- IC50 ([3]; LLC1, 48 h, read-out: LLC1-IC 50 (48 h) (μM)): 1.66 ± 0.13 µM
- IC50 ([3]; LLC1, 72 h, read-out: LLC1-IC 50 (72 h) (μM)): 1.05 ± 0.02 µM
- AUC(0-t) (in vivo): 6300 ng·h/mL
- MRT (in vivo): 1.89 min
- half-life (in vivo): 4.89 min
